Counter-ions that a name gives are not always drawn.
Legend:
[1] = tested on: FCA-induced thermal hyperalgesia; experiment: FCA model of inflammatory pain, thermal hyperalgesia; assay type: in vivo; conditions: rat FCA model
Experimental: (§1) Test Animals: Each experiment used rats weighing between 200-260 g at the start of the experiment. The rats were group-housed and had free access to food and water at all times, except prior to oral administration of a Substituted-Quinoxaline-Type Bridged-Piperidine Compound when food was removed for 16 hours before dosing. A control group acted as a comparison to rats treated with a Substituted-Quinoxaline-Type Bridged-Piperidine Compound. The control group was administered the carrier for the Substituted-Quinoxaline-Type Bridged-Piperidine Compound. The volume of carrier administered to the control group was the same as the volume of carrier and Substituted-Quinoxaline-Type Bridged-Piperidine Compound administered to the test group.
Inflammatory Pain: To assess the actions of a Substituted-Quinoxaline-Type Bridged-Piperidine Compound for the treatment or prevention of inflammatory pain, the Freund's complete adjuvant (“FCA”) model of inflammatory pain was used. […] The left hind paw of each animal was administered a 50 μL intraplantar injection of 50% FCA. 24 hour post injection, the animal was assessed for response to noxious mechanical stimuli by determining the PWT, or to noxious thermal stimuli by determining the PWL, as described below. […] Responses to noxious mechanical stimuli were then determined 1, 3, 5 and 24 hours post administration. Percentage reversal of hyperalgesia for each animal was defined as: […]
Response to Thermal Stimuli as an Assessment of Thermal Hyperalgesia: The plantar test can be used to assess thermal hyperalgesia. For this test, hind paw withdrawal latencies (PWL) to a noxious thermal stimulus were determined using a plantar test apparatus (commercially available from Ugo Basile of Italy) following the technique described by K. Hargreaves et al., “A New and Sensitive Method for Measuring Thermal Nociception in Cutaneous Hyperalgesia,” Pain 32(1):77-88 (1988). The maximum exposure time was set at 32 seconds to avoid tissue damage and any directed paw withdrawal from the heat source was taken as the end point. Three latencies were determined at each time point and averaged. Either only the affected (ipsilateral) paw was tested, or both the ipsilateral and contralateral (non-injured) paw were tested.

[2] = abnormal behavioral side effects (sedation, hyperactivity, hypoactivity); conditions: in vivo
[3] = target: hERG (human ether a-go-go gene) (Homo sapiens (Human), UniProt Q12809); experiment: cardiovascular side effects: in vitro hERG assay and APD in guinea pig purkinje fibers; assay type: cell-based; conditions: in vitro hERG assay; APD in guinea pig purkinje fibers
Experimental: These side effects were determined using known methods: an in vitro hERG (human ether a-go-go gene) assay as disclosed in Z. Zhou et al., “Properties of HERG Channels Stably Expressed in HEK 293 Cells Studied at Physiological Temperature,” Biophysical J. 74:230-241 (1998); and APD (action potential duration) in guinea pig purkinje fibers as disclosed in J. A. Hey, “The Guinea Pig Model for Assessing Cardiotoxic Proclivities of Second Generation Antihistamines,” Arzneimittelforschung 46(8):834-837 (1996).

[4] = tested on: nerve injury-induced mechanical hyperalgesia; experiment: Seltzer partial sciatic nerve ligation model of neuropathic pain, mechanical hyperalgesia; assay type: in vivo; conditions: rat Seltzer model, 3 mg/kg
Experimental: as §1
Partial ligation of the left sciatic nerve was performed under isoflurane/O2 inhalation anesthesia. Following induction of anesthesia, the left thigh of the rat was shaved and the sciatic nerve exposed at high thigh level through a small incision and was carefully cleared of surrounding connective tissues at a site near the trocanther just distal to the point at which the posterior biceps semitendinosus nerve branches off of the common sciatic nerve. A 7-0 silk suture was inserted into the nerve with a ⅜ curved, reversed-cutting mini-needle and tightly ligated so that the dorsal ⅓ to ½ of the nerve thickness was held within the ligature. The wound was closed with a single muscle suture (4-0 nylon (Vicryl)) and vetbond tissue glue. Following surgery, the wound area was dusted with antibiotic powder. Sham-treated rats underwent an identical surgical procedure except that the sciatic nerve was not manipulated. Following surgery, animals were weighed and placed on a warm pad until they recovered from anesthesia. Animals were then returned to their home cages until behavioral testing began. The animals were assessed for response to noxious mechanical stimuli by determining PWT, as described below, prior to surgery (baseline), then immediately prior to and 1, 3, and 5 hours after drug administration for rear paw of the animal. Percentage reversal of neuropathic hyperalgesia was defined as: […]
Response to Mechanical Stimuli as an Assessment of Mechanical Hyperalgesia: The paw pressure assay was used to assess mechanical hyperalgesia. For this assay, hind paw withdrawal thresholds (PWT) to a noxious mechanical stimulus were determined using an analgesymeter (Model 7200, commercially available from Ugo Basile of Italy) as described in C. […] The maximum weight that could be applied to the hind paw was set at 250 g and the end point is taken was complete withdrawal of the paw. PWT was determined once for each rat at each time point and either only the affected (ipsilateral) paw was tested, or both the ipsilateral and contralateral (non-injured) paw were tested.

[5] = 5 mg/kg dose, 3 hours after administration
[6] = 5 mg/kg dose, 5 hours after administration

Structure (SMILES): O=C(O)c1nc2ccccc2n([C@H]2C[C@H]3CC[C@@H](C2)N3C2CCCCCCCCCC2)c1=O [Compound 358]
- % reversal of thermal hyperalgesia ([1]; 5 mg/kg dose, 1 hour after administration): 34%
- % reversal of thermal hyperalgesia [1, 5]: 46%
- % reversal of thermal hyperalgesia [1, 6]: 79%
- abnormal behavioral side effects, such as sedation, hyperactivity and/or hypoactivity [2]: reduced abnormal behavioral side effects

Structure (SMILES): O=C(O)c1nc2ccccc2n([C@H]2C[C@H]3CC[C@@H](C2)N3[C@H]2C[C@@H]3CCC[C@@H](C3)C2)c1=O [Compound 361, 4-((endo)-8-((exo)-bicyclo[3.3.1]nonan-3-yl)-8-azabicyclo[3.2.1]octan-3-yl)-3-oxo-3,4-dihydroquinoxaline-2-carboxylic acid]
- % reversal of thermal hyperalgesia [1, 5]: 90%
- % reversal of thermal hyperalgesia [1, 6]: 70%
- abnormal behavioral side effects, such as sedation, hyperactivity and/or hypoactivity [2]: reduced abnormal behavioral side effects

Structure (SMILES): O=C(O)c1nc2ccccc2n([C@H]2C[C@H]3CCC[C@@H](C2)N3C2CC3CCCC(C3)C2)c1=O (stereo partly drawn) [Compound 362, 4-((endo)-9-((exo)-bicyclo[3.3.1]nonan-3-yl)-9-azabicyclo[3.3.1]nonan-3-yl)-3-oxo-3,4-dihydroquinoxaline-2-carboxylic acid]
- % reversal of thermal hyperalgesia ([1]; 3 mg/kg dose, 1 hour after administration): 86%
- % reversal of thermal hyperalgesia ([1]; 3 mg/kg dose, 3 hours after administration): 51%
- % reversal of thermal hyperalgesia ([1]; 3 mg/kg dose, 5 hours after administration): 27%
- ED50 value for reversal of thermal hyperalgesia ([1]; 1 hour after administration): 0.8 mg/kg
- ED50 value for reversal of thermal hyperalgesia ([1]; 3 hours after administration): 1.5 mg/kg
- ED50 value for reversal of thermal hyperalgesia ([1]; 5 hours after administration): 3.0 mg/kg
- abnormal behavioral side effects, such as sedation, hyperactivity and/or hypoactivity [2]: reduced abnormal behavioral side effects
- cardiovascular side effects [3]: reduced cardiovascular side effects
- % reversal of mechanical hyperalgesia ([4]; 1 hour after administration): 60%
- % reversal of mechanical hyperalgesia ([4]; 3 hours after administration): 60%
- % reversal of mechanical hyperalgesia ([4]; 5 hours after administration): 50%
- % reversal of mechanical hyperalgesia ([4]; 7 hours after administration): 40%

Structure (SMILES): C[C@@H]1C[C@@H]2C[C@H](C1)C[C@@H](N1[C@@H]3CCC[C@H]1C[C@@H](n1c(=O)c(C(=O)O)nc4ccccc41)C3)C2 [Compound 405, (exo, endo, endo)-4-(9-(7-methylbicyclo[3.3.1]nonan-3-yl)-9-azabicyclo[3.3.1]nonan-3-yl)-3-oxo-3,4-dihydroquinoxaline-2-carboxylic acid potassium salt]
- % reversal of mechanical hyperalgesia ([4]; 1 hour after administration): 70%
- % reversal of mechanical hyperalgesia ([4]; 3 hours after administration): 70%
- % reversal of mechanical hyperalgesia ([4]; 5 hours after administration): 70%
